Assays:
AChE [1] = assay: PBK modeling-facilitated reverse dosimetry and BMD modelling of predicted AChE inhibition in rats; set-up: species or system rat
From the text: (§1) In the present study, it was assumed that in vivo dose-dependent AChE inhibition (in blood) depends on the maximum concentration (Cmax) of profenofos reached in the blood. For adequate PBK modeling-facilitated reverse dosimetry, the active (unbound) concentration of a test chemical in the in vitro test system should be linked to the in vivo freely available chemical at the target site. This is important since it is assumed that it is the fraction unbound that causes the effect (AChE inhibition). In the in vitro incubations, a very low concentration of BSA (0.1 mg/mL) is present. Heilmair et al. ([2008]) reported that with such low BSA concentrations, the free concentration of chlorpyrifos oxon is not affected. Furthermore, Rosenfeld and Sultatos ([2006]) found no evidence of binding of paraoxon by BSA even at a higher concentration (1 mg/ml) during incubations. Based on these observations, no significant effect on the free fraction of profenofos in the in vitro AChE inhibition studies is expected, which corroborated with estimations on profenofos binding in the in vitro incubations with help of the online simcyp tool (https://www.certara.com/software/pbpk-modeling-and-simulation/).
By calculating with the PBK model, the external dose required to reach (as unbound Cmax) the concentrations applied in the in vitro test, each in vitro concentration was translated into an in vivo dose. In this way, the concentration–response curves for rat and human AChE inhibition were converted into in vivo dose–response curves for profenofos-induced AChE inhibition in rats and humans, respectively.
To evaluate the performance of the PBK modeling-facilitated reverse dosimetry approach to predict in vivo AChE inhibition, the predicted dose–response curve for rat AChE inhibition upon exposure to profenofos was compared with available in vivo data on AChE inhibition in rats (JMPR [2007]). […]

AChE [2] = assay: PBK modeling-facilitated reverse dosimetry and BMD modelling of predicted AChE inhibition in humans; set-up: species or system human
From the text: as §1
By calculating with the PBK model, the external dose required to reach (as unbound Cmax) the concentrations applied in the in vitro test, each in vitro concentration was translated into an in vivo dose. […]

brain AChE [3] = assay: In vivo brain AChE inhibition in rats, single exposure (JMPR); details: rat
From the text: To evaluate the performance of the PBK modeling-facilitated reverse dosimetry approach to predict in vivo AChE inhibition, the predicted dose–response curve for rat AChE inhibition upon exposure to profenofos was compared with available in vivo data on AChE inhibition in rats (JMPR [2007]). Furthermore, the predicted dose–response data were used for BMD modeling, using EFSA PROAST version 69.0 (https://shiny-efsa.openanalytics.eu/app/bmd) using the model averaging approach to allow evaluation of the prediction by comparison of BMDL10 values obtained from the predicted dose–response data to points of departure derived by regulatory bodies (EPA [2016]; JMPR [2007], EFSA [2019]). To that end, the obtained BMDL10 values were compared with a reported BMDL10 value from a rat study on profenofos-induced RBC AChE inhibition, which was recently used to obtain an ARfD by the US EPA (EPA [2016]), and a reported NOAEL value on profenofos-induced rat brain acetylcholinesterase inhibition, which has been used to obtain an ARfD by JMPR ([2007]).

[4] = tested on: AChE of human erythrocytes; details: freshly obtained human erythrocytes; ref Das and Jamil [2006]; read-out: IC50 AChE inhibition; cited from earlier work
RBC AChE = details: adult rats, single exposure; ref EPA [2016]; cited from earlier work
brain AChE [5] = details: rats, single exposure; ref JMPR [2007]; cited from earlier work
AChE [6] = target: AChE (Homo sapiens, UniProt P22303); assay: In vitro inhibition of human recombinant AChE (Ellman); assay type: biochemical; set-up: purchased Sigma-Aldrich; details: 15-min incubation at 37 °C
AChE (Homo sapiens, UniProt P22303), sequence (P22303 32-614): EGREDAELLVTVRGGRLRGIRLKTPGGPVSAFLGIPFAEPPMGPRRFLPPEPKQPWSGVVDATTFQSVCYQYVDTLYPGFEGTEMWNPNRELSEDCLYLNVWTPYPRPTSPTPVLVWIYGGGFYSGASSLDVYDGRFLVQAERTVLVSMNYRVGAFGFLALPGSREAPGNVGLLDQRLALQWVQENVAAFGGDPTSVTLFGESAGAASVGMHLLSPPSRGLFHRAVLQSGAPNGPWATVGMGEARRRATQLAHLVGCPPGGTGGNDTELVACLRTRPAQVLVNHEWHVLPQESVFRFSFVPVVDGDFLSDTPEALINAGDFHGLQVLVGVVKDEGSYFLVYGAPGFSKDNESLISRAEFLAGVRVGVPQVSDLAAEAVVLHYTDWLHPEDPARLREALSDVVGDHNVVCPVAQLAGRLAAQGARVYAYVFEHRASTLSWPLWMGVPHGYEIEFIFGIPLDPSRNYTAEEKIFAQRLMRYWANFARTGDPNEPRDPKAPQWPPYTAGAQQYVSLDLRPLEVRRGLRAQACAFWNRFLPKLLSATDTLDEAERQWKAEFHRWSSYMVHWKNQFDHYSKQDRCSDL
Experimental: To perform reverse dosimetry of in vitro AChE inhibition by profenofos, first the in vitro AChE activity in the absence or presence of increasing concentrations of profenofos was determined. For humans, commercially available recombinant AChE was used. For rats, no commercially available recombinant AChE was available, so rat AChE was obtained from rat blood as described below.
AChE inhibition was determined following the protocol of Ellman et al. ([1961]) as modified by Chambers and Chambers ([1989]). The concentration of acetylthiocholine and recombinant AChE were optimized to be linear for metabolite formation (data not shown). Human recombinant AChE was dissolved in 0.1 M sodium phosphate (pH 7.4) containing 1 mg/ml BSA (which was present to stabilize human recombinant AChE (Rosenfeld and Sultatos [2006])) to reach an enzyme concentration of 200 U/ml. Subsequently, the AChE enzyme solution was further diluted with 0.1 M sodium phosphate (pH 7.4) containing 1 mg/ml BSA to a working concentration of 1 U/ml. […] Subsequently, the time-dependent increase in absorbance due to formation of chromophore (DTNB + thiocholine) was measured at 37 °C using a wavelength of 412 nm during a period of 10 min, using a spectrophotometer (SpectraMax, Molecular Devices, UK).
AChE activity was expressed as enzyme activity (percent of control). […]

CCCSP(=O)(OCC)Oc1ccc(Br)cc1Cl (stereo not drawn) [profenofos, O-(4-bromo-2-chlorophenyl) O-ethyl S-propyl phosphorothioate]
JMPR NOAEL relative to BMDL10 from predicted rat dose-response data (AChE [1]): 200 fold
Predicted rat BMDL10 relative to EFSA ARfD (AChE [1]): ~ 100 fold
US EPA BMDL10 relative to BMDL10 from predicted rat dose-response data (AChE [1]): 4 times
Interspecies difference in predicted BMDL10 (rat vs human) (AChE [2]): 45 fold
JMPR NOAEL relative to US EPA BMDL10 (brain AChE [3]): 50 fold
IC50 [4]: 350 nM
BMDL10 for RBC AChE inhibition (RBC AChE): 1.99 mg/kg bw
NOAEL for inhibition of brain AChE (brain AChE [5]): 100 mg/kg bw
IC50 (AChE [6]): 302 nM
